US11865126B2, “Method for treating anxiety disorders, headache disorders, and eating disorders with psilocybin” (priority 2019, dated 2024)

Tested on: healthy subjects
Experiment: Phase 1 healthy volunteer study, single oral dose: treatment-emergent adverse events
Assay type: in vivo, human
Settings: 25 mg
Procedure: A Phase 1 randomized, double-blind, placebo-controlled study to evaluate the effect of psilocybin on cognitive and emotional processing as compared to placebo in healthy volunteers was conducted. The study investigated the short-term (Day 7) and long-term (Day 28) effects of moderate (10 mg) and high doses (25 mg) of psilocybin on key domains of cognition, such as episodic memory, attention, working and spatial memory, social cognition and elements of executive function, including cognitive flexibility.
90 healthy subjects were studied. Approximately 50% of the subjects were psilocybin-naïve. For subjects with prior psilocybin experience, the last exposure was at least 1 year prior to the signing of the Informed Consent Form (ICF). Approximately 50% of the subjects were female. Subjects were stratified by sex and age (18-35 years old; >35 years old).
Each subject was assigned 1 treatment bottle containing 5 capsules packaged in a double-blind fashion, depending on the randomized treatment arm, the bottle contained one of the following: • a. Psilocybin 10 mg: 2×5-mg oral psilocybin capsules plus 3× placebo capsules • b. Psilocybin 25 mg: 5×5-mg oral psilocybin capsules • c. Placebo: 5× placebo capsules
Each 5-mg oral psilocybin capsule comprised 5 mg crystalline psilocybin in the form of Polymorph A, 12.5 mg of SMCC 50, 79.5 mg of SMCC 90, 1 mg sodium starch glycolate, 1 mg colloidal silicon dioxide, and 1 mg sodium stearyl fumarate
Adverse events: Throughout the course of the study, all AEs were monitored and recorded. Each AE was classified according to the following criteria: • i. […] Moderate: The AE produces some impairment of functioning, but is not hazardous to the subject's health. • iii. Severe: The AE produces significant impairment of functioning or incapacitation and is a definite hazard to the subject's health.
Selected Adverse Events of included: • (a) Euphoric mood • (b) Dissociative disorder • (c) Hallucination • (d) Psychotic disorder • (e) Cognitive disorder • (f) Disturbance in attention • (g) Altered mood • (h) Impairment of psychomotor skills • (i) Inappropriate affect • (j) Overdose • (k) Intentional product misuse • (l) Illusion
For example, drug-induced hepatitis that resolved without evidence of hepatic failure would not be considered life threatening even though drug-induced hepatitis can be fatal. • (c) Inpatient hospitalization or prolongation of existing hospitalization. • (d) Persistent or significant disability/incapacity. • (e) Congenital anomaly/birth defect in the offspring of a subject who received psilocybin. • (f) Other: Important medical events that may not result in death, be life-threatening, or require hospitalization, may be considered an SAE when, based upon appropriate medical judgment, they may jeopardize the subject and may require medical or surgical intervention to prevent one of the outcomes listed in this definition. […] Visits:
Visit 3 (V3): Drug Administration (Day 0): The subject was asked to eat a light breakfast at least two hours prior to coming to the clinic for study drug administration. On Day 0 (V3), the subject underwent the SSTS, had vital signs obtained, medications reviewed, AEs recorded and eligibility reviewed prior to being randomized to study drug. The study drug was administered to up to six subjects simultaneously in individual beds separated by a curtain. The subject was invited to put on eyeshades and headphones, lie down and listen to calming music for the rest of the session (six hours). The subject was supported 1:1 with a chaperone and supervised by the study psychiatrist and lead therapist.
Recording of adverse events and prior/concomitant medication was performed at each visit.
During administration of psilocybin, each subject received one on one support from a trained assisting therapist and each dosing session was supervised by a study psychiatrist and a lead therapist. […]

Compound: CN(C)CCc1c[nH]c2cccc(OP(=O)(O)O)c12 [psilocybin]
- Any severe TEAE: % of subjects: (33.3) %
- Any severe TEAE: Events: 29
- Any severe TEAE: N (%): 10
- Emotional disorder, worst severity Mild: Events: 1
- Emotional disorder, worst severity Moderate: Events: 5
- Emotional disorder, worst severity Severe: Events: 0
- Emotional disorder, worst severity Severe: N (%): 0
- Emotional disorder: Events: 6
- Euphoric mood, worst severity Mild: Events: 3
- Euphoric mood, worst severity Mild: N (%): 3 (10.0)
- Euphoric mood, worst severity Moderate: Events: 4
- Euphoric mood, worst severity Severe: Events: 0
- Euphoric mood, worst severity Severe: N (%): 0
- Euphoric mood: Events: 8
- Fatigue, worst severity Mild: Events: 3
- Fatigue, worst severity Mild: N (%): 3 (10.0)
- Fatigue, worst severity Moderate: Events: 5
- Fatigue, worst severity Severe: Events: 0
- Fatigue, worst severity Severe: N (%): 0
- Fatigue: Events: 8
- Feeling abnormal, worst severity Mild: Events: 0
- Feeling abnormal, worst severity Mild: N (%): 0
- Feeling abnormal, worst severity Moderate: Events: 0
- Feeling abnormal, worst severity Moderate: N (%): 0
- Feeling abnormal, worst severity Severe: Events: 0
- Feeling abnormal, worst severity Severe: N (%): 0
- Feeling abnormal: Events: 0
- Feeling abnormal: N (%): 0
- Feeling of relaxation: Events: 1
- Gastrointestinal disorders, worst severity Mild: Events: 4
- Gastrointestinal disorders, worst severity Moderate: Events: 1
- Gastrointestinal disorders, worst severity Severe: Events: 0
- Gastrointestinal disorders, worst severity Severe: N (%): 0
- Gastrointestinal disorders: Events: 5
- General disorders and administration site conditions, worst severity Mild: Events: 8
- General disorders and administration site conditions, worst severity Moderate: Events: 7
- General disorders and administration site conditions, worst severity Moderate: N (%): 6 (20.0)
- General disorders and administration site conditions, worst severity Severe: Events: 1
- General disorders and administration site conditions: Events: 18
- Hallucination, auditory, worst severity Mild: Events: 1
- Hallucination, auditory, worst severity Moderate: Events: 3
- Hallucination, auditory, worst severity Moderate: N (%): 3 (10.0)
- Hallucination, auditory, worst severity Severe: Events: 0
- Hallucination, auditory, worst severity Severe: N (%): 0
- Hallucination, auditory: Events: 4
- Hallucination, tactile: Events: 4
- Hallucination, visual, worst severity Mild: Events: 3
- Hallucination, visual, worst severity Mild: N (%): 3 (10.0)
- Hallucination, visual, worst severity Moderate: Events: 13
- Hallucination, visual, worst severity Severe: Events: 5
- Hallucination, visual: Events: 22
- Hallucination, worst severity Mild: Events: 0
- Hallucination, worst severity Mild: N (%): 0
- Hallucination, worst severity Moderate: Events: 2
- Hallucination, worst severity Severe: Events: 0
- Hallucination, worst severity Severe: N (%): 0
- Hallucination: Events: 2
- Headache, worst severity Mild: Events: 10
- Headache, worst severity Moderate: Events: 5
- Headache, worst severity Severe: Events: 0
- Headache, worst severity Severe: N (%): 0
- Headache: Events: 16
- Hypoaesthesia, worst severity Mild: Events: 4
- Hypoaesthesia, worst severity Mild: N (%): 3 (10.0)
- Hypoaesthesia, worst severity Moderate: Events: 0
- Hypoaesthesia, worst severity Moderate: N (%): 0
- Hypoaesthesia, worst severity Severe: Events: 0
- Hypoaesthesia, worst severity Severe: N (%): 0
- Hypoaesthesia: Events: 4
- Hypoaesthesia: N (%): 3 (10.0)
- Illusion, worst severity Mild: Events: 4
- Illusion, worst severity Mild: N (%): 3 (10.0)
- Illusion, worst severity Moderate: Events: 12
- Illusion, worst severity Severe: Events: 7
- Illusion: Events: 26
- Infections and infestations, worst severity Mild: Events: 4
- Infections and infestations, worst severity Moderate: Events: 0
- Infections and infestations, worst severity Moderate: N (%): 0
- Infections and infestations, worst severity Severe: Events: 0
- Infections and infestations, worst severity Severe: N (%): 0
- Infections and infestations: Events: 4
- Investigations, worst severity Mild: Events: 1
- Investigations, worst severity Moderate: Events: 0
- Investigations, worst severity Moderate: N (%): 0
- Investigations, worst severity Severe: Events: 0
- Investigations, worst severity Severe: N (%): 0
- Investigations: Events: 1
- Mental fatigue: Events: 3
- Mental fatigue: N (%): 3 (10.0)
- Mood altered, worst severity Mild: Events: 3
- Mood altered, worst severity Moderate: Events: 7
- Mood altered, worst severity Moderate: N (%): 6 (20.0)
- Mood altered, worst severity Severe: Events: 9
- Mood altered: Events: 25
- Musculoskeletal and connective tissue disorders, worst severity Mild: Events: 3
- Musculoskeletal and connective tissue disorders, worst severity Moderate: Events: 1
- Musculoskeletal and connective tissue disorders, worst severity Severe: Events: 0
- Musculoskeletal and connective tissue disorders, worst severity Severe: N (%): 0
- Musculoskeletal and connective tissue disorders: Events: 4
- Musculoskeletal and connective tissue disorders: N (%): 3 (10.0)
- Nausea: Events: 3
- Nausea: N (%): 3 (10.0)
- Nervous system disorders, worst severity Mild: Events: 24
